Results on one compound are retold here after the NIST ThermoML archive (doi:10.1021/acs.jced.6b00957).

A short description of data set [1]: Molar enthalpy of transition or fusion. Particulars: Crystal; DSC.
For data set [2] the following is noted: Crystal; DTA.

Numbers after ± are expanded uncertainties.

On to `O=C(O)c1c(O)cccc1O` [2,6-dihydroxybenzoic acid], for which the “Molar enthalpy of transition or fusion” value in data set [1] came out at 6.05 ± 0.382 kcal/mol. Further, in data set [2], the Normal melting temperature was 167.1 ± 4 °C.
